# Experimental data taken from PubChem BioAssay (NCI).
#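 Where inhibition never reached the appropriate level, the endpoint shown equals the highest concentration tested. Otherwise, values were interpolated linearly from a five-concentration, 48-hour dose response in 96-well plates. TGI: total growth inhibition.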
# Assays:
# Experiment in all cases: NCI tumour cell line growth inhibition, 48 h
# EKVX NSCLC = test system: EKVX NSCLC
# COLO 205 colon = test system: COLO 205 colon
# CAKI-1 renal = test system: CAKI-1 renal
# RXF-631 renal = test system: RXF-631 renal
# UACC-257 melanoma = test system: UACC-257 melanoma
# T-47D breast = test system: T-47D breast
# HT29 colon = test system: HT29 colon
# DU-145 prostate = test system: DU-145 prostate
# LXFL 529 NSCLC = test system: LXFL 529 NSCLC
# OVCAR-8 ovarian = test system: OVCAR-8 ovarian
# NCI-H226 lung = test system: NCI-H226 lung
# NCI-H522 lung = test system: NCI-H522 lung
# K-562 leukemia = test system: K-562 leukemia
# DMS 114 small cell lung = test system: DMS 114 small cell lung
# MDA-N = test system: MDA-N
# SN12C renal = test system: SN12C renal
# HOP-62 NSCLC = test system: HOP-62 NSCLC
# CCRF-CEM leukemia = test system: CCRF-CEM leukemia
# NCI-H23 lung = test system: NCI-H23 lung
# OVCAR-4 ovarian = test system: OVCAR-4 ovarian
# SK-MEL-2 melanoma = test system: SK-MEL-2 melanoma
# BT-549 breast = test system: BT-549 breast
# SF-268 CNS = test system: SF-268 CNS
# A498 renal = test system: A498 renal
# DMS 273 small cell lung = test system: DMS 273 small cell lung
# PC-3 prostate = test system: PC-3 prostate
# SNB-78 CNS = test system: SNB-78 CNS
# SF-539 CNS = test system: SF-539 CNS
# SK-OV-3 ovarian = test system: SK-OV-3 ovarian
# MOLT-4 leukemia = test system: MOLT-4 leukemia
# MDA-MB-231 breast = test system: MDA-MB-231 breast
# LOX IMVI melanoma = test system: LOX IMVI melanoma
# RPMI-8226 leukemia = test system: RPMI-8226 leukemia
# SR leukemia = test system: SR leukemia
# NCI-H460 lung = test system: NCI-H460 lung
# A549 NSCLC = test system: A549 NSCLC
# SK-MEL-5 melanoma = test system: SK-MEL-5 melanoma
# DLD-1 colon = test system: DLD-1 colon
# HOP-18 NSCLC = test system: HOP-18 NSCLC
# SK-MEL-28 melanoma = test system: SK-MEL-28 melanoma
# RXF 393 renal = test system: RXF 393 renal
# OVCAR-3 ovarian = test system: OVCAR-3 ovarian
# SW-620 colon = test system: SW-620 colon
# M14 melanoma = test system: M14 melanoma
# OVCAR-5 ovarian = test system: OVCAR-5 ovarian
# SF-295 CNS = test system: SF-295 CNS
# HCT-116 colon = test system: HCT-116 colon
# 786-0 renal = test system: 786-0 renal
# MCF7 breast = test system: MCF7 breast
# HCT-15 colon = test system: HCT-15 colon
# HL-60(TB) leukemia = test system: HL-60(TB) leukemia
# M19-MEL melanoma = test system: M19-MEL melanoma
# KM12 colon = test system: KM12 colon
# HOP-92 NSCLC = test system: HOP-92 NSCLC
# IGROV1 ovarian = test system: IGROV1 ovarian
# KM20L2 colon = test system: KM20L2 colon
# UACC-62 melanoma = test system: UACC-62 melanoma
# U251 CNS = test system: U251 CNS
# SNB-75 CNS = test system: SNB-75 CNS
# SNB-19 CNS = test system: SNB-19 CNS
# HCC-2998 colon = test system: HCC-2998 colon
# MDA-MB-435 = test system: MDA-MB-435
# XF 498 CNS = test system: XF 498 CNS
# MALME-3M melanoma = test system: MALME-3M melanoma
# HS 578T breast = test system: HS 578T breast
# P388/ADR leukemia = test system: P388/ADR leukemia
# P388 leukemia = test system: P388 leukemia
# SN12K1 renal = test system: SN12K1 renal
# NCI/ADR-RES ovarian = test system: NCI/ADR-RES ovarian
# UO-31 renal = test system: UO-31 renal
structure (smiles),measurement,setting,value
CN(C)CCN1C(=O)c2cccc3cc([N+](=O)[O-])cc(c23)C1=O,TGI,EKVX NSCLC,2.68 µM
same,TGI,COLO 205 colon,9.56 µM
same,TGI,CAKI-1 renal,1.76 µM
same,TGI,RXF-631 renal,3.62 µM
same,TGI,UACC-257 melanoma,2.13 µM
same,TGI,T-47D breast,29.6 µM
same,TGI,HT29 colon,2.8 µM
same,TGI,DU-145 prostate,> 100 µM
same,TGI,LXFL 529 NSCLC,2.8 µM
same,TGI,OVCAR-8 ovarian,2.02 µM
same,TGI,NCI-H226 lung,0.436 µM
same,TGI,NCI-H522 lung,2.12 µM
same,TGI,K-562 leukemia,26.5 µM
same,TGI,DMS 114 small cell lung,0.811 µM
same,TGI,MDA-N,10.5 µM
same,TGI,SN12C renal,1.69 µM
same,TGI,HOP-62 NSCLC,0.779 µM
same,TGI,CCRF-CEM leukemia,0.798 µM
same,TGI,NCI-H23 lung,1.24 µM
same,TGI,OVCAR-4 ovarian,6.37 µM
same,TGI,SK-MEL-2 melanoma,3.14 µM
same,TGI,BT-549 breast,7.62 µM
same,TGI,SF-268 CNS,3.12 µM
same,TGI,A498 renal,0.386 µM
same,TGI,DMS 273 small cell lung,0.557 µM
same,TGI,PC-3 prostate,3.49 µM
same,TGI,SNB-78 CNS,15 µM
same,TGI,SF-539 CNS,1.32 µM
same,TGI,SK-OV-3 ovarian,0.806 µM
same,TGI,MOLT-4 leukemia,2.04 µM
same,TGI,MDA-MB-231 breast,14.6 µM
same,TGI,LOX IMVI melanoma,0.806 µM
same,TGI,RPMI-8226 leukemia,10.2 µM
same,TGI,SR leukemia,97 µM
same,TGI,NCI-H460 lung,0.384 µM
same,TGI,A549 NSCLC,0.397 µM
same,TGI,SK-MEL-5 melanoma,1.37 µM
same,TGI,DLD-1 colon,28.4 µM
same,TGI,HOP-18 NSCLC,6.4 µM
same,TGI,SK-MEL-28 melanoma,6.85 µM
same,TGI,RXF 393 renal,0.923 µM
same,TGI,OVCAR-3 ovarian,6.27 µM
same,TGI,SW-620 colon,3.7 µM
same,TGI,M14 melanoma,2.14 µM
same,TGI,OVCAR-5 ovarian,5.24 µM
same,TGI,SF-295 CNS,1.38 µM
same,TGI,HCT-116 colon,6.7 µM
same,TGI,786-0 renal,8.1 µM
same,TGI,MCF7 breast,0.743 µM
same,TGI,HCT-15 colon,4.2 µM
same,TGI,HL-60(TB) leukemia,> 45.3 µM
same,TGI,M19-MEL melanoma,1.84 µM
same,TGI,KM12 colon,4.28 µM
same,TGI,HOP-92 NSCLC,1.12 µM
same,TGI,IGROV1 ovarian,4.49 µM
same,TGI,KM20L2 colon,5.63 µM
same,TGI,UACC-62 melanoma,1.03 µM
same,TGI,U251 CNS,2 µM
same,TGI,SNB-75 CNS,1.05 µM
same,TGI,SNB-19 CNS,2.12 µM
same,TGI,HCC-2998 colon,3.56 µM
same,TGI,MDA-MB-435,4.66 µM
same,TGI,XF 498 CNS,2 µM
same,TGI,MALME-3M melanoma,1.84 µM
same,TGI,HS 578T breast,4.65 µM
Cc1[nH]c(=O)[nH]c(=O)c1/C=C/C(=O)O (tested in a mixture with another compound),TGI,EKVX NSCLC,> 625 µM
same,TGI,COLO 205 colon,> 625 µM
same,TGI,CAKI-1 renal,> 625 µM
same,TGI,UACC-257 melanoma,> 625 µM
same,TGI,HT29 colon,> 625 µM
same,TGI,OVCAR-8 ovarian,> 568 µM
same,TGI,NCI-H226 lung,> 625 µM
same,TGI,NCI-H522 lung,> 625 µM
same,TGI,P388/ADR leukemia,> 625 µM
same,TGI,K-562 leukemia,> 625 µM
same,TGI,DMS 114 small cell lung,> 625 µM
same,TGI,SN12C renal,> 625 µM
same,TGI,HOP-62 NSCLC,> 625 µM
same,TGI,CCRF-CEM leukemia,> 625 µM
same,TGI,NCI-H23 lung,> 625 µM
same,TGI,OVCAR-4 ovarian,> 625 µM
same,TGI,SK-MEL-2 melanoma,> 625 µM
same,TGI,SF-268 CNS,> 625 µM
same,TGI,A498 renal,> 625 µM
same,TGI,DMS 273 small cell lung,> 625 µM
same,TGI,P388 leukemia,> 625 µM
same,TGI,SNB-78 CNS,> 625 µM
same,TGI,SF-539 CNS,> 625 µM
same,TGI,SK-OV-3 ovarian,> 625 µM
same,TGI,MOLT-4 leukemia,> 625 µM
same,TGI,LOX IMVI melanoma,> 625 µM
same,TGI,RPMI-8226 leukemia,> 625 µM
same,TGI,NCI-H460 lung,> 625 µM
same,TGI,A549 NSCLC,> 625 µM
same,TGI,SK-MEL-5 melanoma,> 625 µM
same,TGI,DLD-1 colon,> 625 µM
same,TGI,HOP-18 NSCLC,> 625 µM
same,TGI,SK-MEL-28 melanoma,> 625 µM
same,TGI,SN12K1 renal,> 625 µM
same,TGI,NCI/ADR-RES ovarian,> 625 µM
same,TGI,RXF 393 renal,> 625 µM
same,TGI,OVCAR-3 ovarian,> 625 µM
same,TGI,SW-620 colon,> 625 µM
same,TGI,OVCAR-5 ovarian,> 625 µM
same,TGI,SF-295 CNS,> 625 µM
same,TGI,HCT-116 colon,> 625 µM
same,TGI,MCF7 breast,> 625 µM
same,TGI,HCT-15 colon,> 625 µM
same,TGI,HL-60(TB) leukemia,> 625 µM
same,TGI,M19-MEL melanoma,> 625 µM
same,TGI,KM12 colon,> 625 µM
same,TGI,HOP-92 NSCLC,623 µM
same,TGI,IGROV1 ovarian,> 625 µM
same,TGI,KM20L2 colon,> 625 µM
same,TGI,UACC-62 melanoma,> 625 µM
same,TGI,U251 CNS,> 625 µM
same,TGI,UO-31 renal,> 625 µM
same,TGI,SNB-75 CNS,> 625 µM
same,TGI,SNB-19 CNS,> 625 µM
same,TGI,HCC-2998 colon,> 625 µM
same,TGI,XF 498 CNS,> 625 µM
same,TGI,MALME-3M melanoma,> 625 µM
